According to patent US20160067212A1, “USE OF INSULIN SIGNALING ANTAGONISTS, OPTIONALLY IN COMBINATION OF TRANSFECTION OF NON-BETA CELLS, FOR INDUCING INSULIN PRODUCTION” (UNIVERSITE DE GENEVE, priority 2013, published 2016):
Entries after “also recorded” stand apart in the source; their conditions may differ. Bridges are numbered along the chain shown (N, C = ends). Where no end group is shown, it is not given here.

Tests used:
Pdx1-expressing α-cells = assay: Insulin production in Pdx1-expressing α-cells of adult mice with normal β-cell mass after in vivo inhibition of insulin signaling; details: in vivo administration to mice expressing Pdx1 in α-cells; FIG. 7B
Experimental: (§1) DT (Sigma) was administrated by intra-peritoneal (i.p.) injections as previously described (Thorel et al., 2010, supra). DOX (1 mg/ml; Sigma) was added to the drinking water. S961 (Novo-Nordisk) (Vikram and Jena, 2010, Biochem Biophys Res Commun. 398(2):260-5) was injected intravenously (i.v.) twice a day at 200-nmol/kg-body weight, for 4 consecutive days. PPP (Santa-Cruz) and Wortmannin (Sigma) were injected i.p. once a day for 5 consecutive days at 10-mg/kg-body weight and 1-mg/kg-body weight, respectively. Mice received subcutaneous insulin pellets (Linbit) one week apart, if glycaemia exceeded 25 mM.
Pancreatic glucagon and insulin dosages (immunoassays), gene expression analyses by real time PCR as well as histological and morphometric analyses were performed as described (Herrera et al, 1991, Development. 113(4):1257-65; Strom et al, 2007, Development. 134(15):2719-25).
Cryostat sections were 10 μm-thick. The antibodies used were: rabbit and guinea pig anti-Pdx1 (kind gift of C. Wright, 1/5000 and 1/750 respectively), guinea pig anti-porcine insulin (DAKO, 1/400), mouse anti-porcine glucagon (1/1000), mouse anti-somatostatin (BCBC Ab1985, 1/200), rabbit anti-GFP (Molecular Probes, 1/400), rabbit anti-Cpeptide1 (BCBC Ab1044, 1/500), rabbit anti-Cpeptide2 (BCBC Ab1042, 1/500). […]

insulin receptor = biological target: T1, insulin receptor (Rattus norvegicus, UniProt P15127); details: Vikram and Jena, 2010; cited from earlier work
T1 construct: host or cells: rats, in vivo (endogenous receptor)
T1 sequence (P15127 27-759 limits assumed): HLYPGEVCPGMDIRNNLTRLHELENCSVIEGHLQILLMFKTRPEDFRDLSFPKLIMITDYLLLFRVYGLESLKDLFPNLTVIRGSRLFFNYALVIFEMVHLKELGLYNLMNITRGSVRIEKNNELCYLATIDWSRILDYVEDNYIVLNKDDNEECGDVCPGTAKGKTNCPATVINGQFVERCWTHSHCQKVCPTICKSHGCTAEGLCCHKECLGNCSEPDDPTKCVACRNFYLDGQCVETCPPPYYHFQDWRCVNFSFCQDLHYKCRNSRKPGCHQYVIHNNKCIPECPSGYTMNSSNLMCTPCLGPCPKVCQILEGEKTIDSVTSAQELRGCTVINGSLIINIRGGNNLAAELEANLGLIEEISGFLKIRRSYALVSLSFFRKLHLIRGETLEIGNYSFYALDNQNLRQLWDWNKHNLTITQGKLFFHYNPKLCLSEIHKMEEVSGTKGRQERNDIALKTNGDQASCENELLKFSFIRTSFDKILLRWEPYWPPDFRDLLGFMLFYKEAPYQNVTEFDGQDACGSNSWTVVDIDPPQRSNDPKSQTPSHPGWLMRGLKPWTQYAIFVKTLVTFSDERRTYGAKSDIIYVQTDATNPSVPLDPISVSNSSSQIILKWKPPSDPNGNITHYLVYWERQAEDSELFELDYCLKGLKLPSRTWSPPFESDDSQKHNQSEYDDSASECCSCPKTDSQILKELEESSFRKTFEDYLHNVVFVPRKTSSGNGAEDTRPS
T1 sequence (P15127 764-1383 partner limits assumed): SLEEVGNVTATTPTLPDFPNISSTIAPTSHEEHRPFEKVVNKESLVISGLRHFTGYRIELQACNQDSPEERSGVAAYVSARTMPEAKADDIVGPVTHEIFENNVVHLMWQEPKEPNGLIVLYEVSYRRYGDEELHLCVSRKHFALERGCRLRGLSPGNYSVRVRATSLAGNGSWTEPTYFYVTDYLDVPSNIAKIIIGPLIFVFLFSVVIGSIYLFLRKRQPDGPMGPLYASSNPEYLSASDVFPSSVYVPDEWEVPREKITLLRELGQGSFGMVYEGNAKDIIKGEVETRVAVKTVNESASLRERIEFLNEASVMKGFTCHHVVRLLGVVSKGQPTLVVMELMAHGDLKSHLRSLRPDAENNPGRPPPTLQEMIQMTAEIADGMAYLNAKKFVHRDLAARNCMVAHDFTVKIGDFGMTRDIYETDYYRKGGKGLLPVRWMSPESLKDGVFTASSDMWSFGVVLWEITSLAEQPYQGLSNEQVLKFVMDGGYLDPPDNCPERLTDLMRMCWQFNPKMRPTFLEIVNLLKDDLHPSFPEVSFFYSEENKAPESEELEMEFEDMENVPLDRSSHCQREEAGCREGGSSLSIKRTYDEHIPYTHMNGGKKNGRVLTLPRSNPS

[1] = Peripheral action of S961 administered in vivo (glycemia); parameters: species or system mice; details: data not shown
Experimental: as §1
To test whether insulin deprivation in absence of β-cell loss can prime α-cells to insulin production, adult mice in which α-cells express Pdx1 (cPdx1OE) were treated with an insulin receptor antagonist, termed S961 (Novo Nordisk), to blunt insulin signaling in peripheral tissues as well as in pancreatic islets (FIG. 7A).
A 5-day treatment to healthy adult mice having a normal β-cell mass led to insulin production in some 18% of Pdx1-expressing α-cells (FIG. 7B). […] Next, the insulin receptor was conditionally inactivated in adult α-cells to assess whether local inhibition of insulin signaling, exclusively at the level of α-cells, is sufficient to prime those cells to insulin production. […]

Row | Molecule | insulin production triggered in Pdx1-expressing α-cells (in words) (Pdx1-expressing α-cells) | effects of S961 in rats (insulin receptor) | effect on glycemia when administered in vivo [1]
1 | COC[C@H]1OC(=O)c2coc3c2[C@@]1(C)C1=C(C3=O)[C@@H]2CCC(=O)[C@@]2(C)C[C@H]1OC(C)=O [wortmannin] | triggers insulin production with similar efficiency; also recorded: produce insulin | – | –
2 | GSLDESFYDWFERQLGGGSGGSSLEEEWAQIQCEVWGRGCPSY (disulfide 33-40) [S961] | – | hyperglycemia, hyperinsulinemia, insulin-resistance and depletion of energy stores | induces hyperglycemia
